Experimental data reported in patent publication US7494992B2, “Antiparasitic terpene alkaloids” (Pfizer Inc., priority 2003, dated 2009).

Molecular target: fly head P2 membranes
Assay: radiometric assay: displacement of 3H-dihydro-CJ-12662 from fly head P2 membranes (Ki; also single-concentration high throughput screen, % inhibition)
Parameters: species or system Lucilia sericata
Conditions: radioligand binding to fly head P2 membranes; value used to calculate Ki values
Description: A further aspect of the invention is a novel binding assay which is used to assess the potential antiparasitic activity of these compounds by measuring how tightly they bind to membranes purified from parasite homogenates. The affinity is calculated according to how readily the compounds of the present invention displace a radiolabeled, reduced analogue of (1S,2R,4aS,5R,8R,8aR)-2-(acetyloxy)-8a-hydroxy-3,8-dimethyl-5-(1-methylethenyl)-1,2,4a,5,6,7,8,8a-octahydronaphthalen-1-yl(2S,3aR,9bR)-6-chloro-9b-hydroxy-5-methyl-1,2,3,3a,5,9b-hexahydropyrrolo[2,3-c][2,1]benzoxazine-2-carboxylate from these membranes.
The in vitro assay for measurement of compounds which displace ^3H-dihydro-(1S,2R,4aS,5R,8R,8aR)-2-(acetyloxy)-8a-hydroxy-3,8-dimethyl-5-(1-methylethenyl)-1,2,4a,5,6,7,8,8a-octahydronaphthalen-1-yl(2S,3aR,9bR)-6-chloro-9b-hydroxy-5-methyl-1,2,3,3a,5,9b-hexahydropyrrolo[2,3-c][2,1]benzoxazine-2-carboxylate from fly head P2 membranes represents another aspect of the invention and was performed as follows. […]

Work on “^3H-dihydro-(1S,2R,4aS,5R,8R,8aR)-2-(acetyloxy)-8a-hydroxy-3,8-dimethyl-5-(1-methylethenyl)-1,2,4a,5,6,7,8,8a-octahydronaphthalen-1-yl(2S,3aR,9bR)-6-chloro-9b-hydroxy-5-methyl-1,2,3,3a,5,9b-hexahydropyrrolo[2,3-c][2,1]benzoxazine-2-carboxylate [^3H-dihydro-CJ-12662]” yielded a Kd of 7 nM.
